Experimental data as given in the supplement of paper PMC10307832.

Assays:
Experiment in all cases: relative viability (nuclei count vs DMSO), 5 days (fraction); higher = more cells survive
[1] = compound: COC1=CC=C(C=C1)CN2C=CC3=C2C=C(C=C3)C(=O)NO + Cc1cc(Nc2cc(N3CCN(C)CC3)nc(Sc3ccc(NC(=O)C4CC4)cc3)n2)n[nH]1 [Tozasertib] (partner 0.1 µM)
Procedure, shortened: (§1)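 After 5 days of treatment, lung cancer cells in 1536-well plates were fixed and stained in a single step (final 0.05% Triton X-100, 1% formaldehyde, 1 ug/ml Hoechst) and their nuclei counted on 4× images. Treatment had been applied by pin tool the day after seeding as one drug alone or as a fixed anchor-drug dose with five library-drug doses (not always all listed) in √10 steps. Relative viability is the nuclei count of treated wells divided by that of vehicle wells, and values are medians of duplicate plates.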

[2] = compound: COC1=CC=C(C=C1)CN2C=CC3=C2C=C(C=C3)C(=O)NO + O=C(c1cc(Cc2n[nH]c(=O)c3ccccc23)ccc1F)N1CCN(C(=O)C2CC2)CC1 [Olaparib] (partner 8 µM)
Procedure, shortened: as §1

[3] = compound: COC1=CC=C(C=C1)CN2C=CC3=C2C=C(C=C3)C(=O)NO + CC(C)C[C@H](NC(=O)[C@H](Cc1ccccc1)NC(=O)c1cnccn1)B(O)O [Bortezomib] (partner 0.002 µM)
Procedure, shortened: as §1

[4] = compound: COC1=CC=C(C=C1)CN2C=CC3=C2C=C(C=C3)C(=O)NO + CS(=O)(=O)CCNCc1ccc(-c2ccc3ncnc(Nc4ccc(OCc5cccc(F)c5)c(Cl)c4)c3c2)o1 [Lapatinib] (partner 2 µM)
Procedure, shortened: as §1

Row | Cell Line | relative viability ([1]; first compound 0.08 µM) | relative viability ([1]; first compound 0.253 µM) | relative viability ([1]; first compound 0.8 µM) | relative viability ([1]; first compound 2.53 µM) | relative viability ([1]; first compound 8 µM) | relative viability ([2]; first compound 0.08 µM) | relative viability ([2]; first compound 0.253 µM) | relative viability ([2]; first compound 0.8 µM) | relative viability ([2]; first compound 2.53 µM) | relative viability ([2]; first compound 8 µM) | relative viability ([3]; first compound 0.08 µM) | relative viability ([3]; first compound 0.253 µM) | relative viability ([3]; first compound 0.8 µM) | relative viability ([3]; first compound 2.53 µM) | relative viability ([3]; first compound 8 µM) | relative viability ([4]; first compound 0.08 µM) | relative viability ([4]; first compound 0.253 µM) | relative viability ([4]; first compound 0.8 µM) | relative viability ([4]; first compound 2.53 µM) | relative viability ([4]; first compound 8 µM)
1 | NCI-H2342 | 0.497 | 0.701 | 0.544 | 0.531 | 0.47 | 0.437 | 0.449 | 0.457 | 0.442 | 0.373 |  |  |  |  |  |  |  |  |  | 
2 | HOP-62 | 0.304 | 0.353 | 0.392 | 0.33 | 0.349 |  | 0.47 | 0.489 | 0.396 | 0.384 | 0.893 | 0.841 | 0.912 | 0.853 | 0.946 | 0.225 | 1.1 | 1.08 | 0.997 | 0.973
3 | BEN | 0.442 | 0.472 | 0.437 | 0.495 | 0.445 | 1.09 | 1.03 | 0.95 | 0.913 | 0.924 | 0.675 | 0.671 | 0.906 | 0.754 | 0.656 | 0.552 | 0.552 | 0.637 | 0.78 | 0.621
4 | NCI-H647 | 0.224 | 0.237 | 0.314 | 0.262 | 0.267 | 0.557 | 0.537 | 0.422 | 0.495 | 0.547 | 0.789 | 0.929 | 0.848 | 0.846 | 1.11 | 0.626 | 1.07 | 1.04 | 1.1 | 0.97
5 | NCI-H2085 | 0.859 | 0.817 | 0.96 | 0.907 | 0.751 | 0.803 | 0.723 | 0.842 | 0.777 | 0.768 | 1.05 | 1.24 | 1.14 | 1.1 | 1.08 | 0.336 | 0.817 | 0.798 | 0.81 | 0.708
6 | NCI-H2347 | 0.463 | 0.415 | 0.613 | 0.611 | 0.503 | 0.53 | 0.53 | 0.651 | 0.67 | 0.524 |  | 0.933 | 0.887 | 0.874 | 0.727 | 0.517 | 0.896 | 1.03 | 1.01 | 0.904
7 | NCI-H2228 |  | 0.229 | 0.291 | 0.228 | 0.185 | 0.686 | 0.82 | 0.79 | 0.88 | 0.651 | 1.22 | 1.03 | 0.93 | 1.18 | 0.863 | 0.864 | 0.853 | 1.11 | 0.916 | 0.789
8 | NCI-H2009 | 0.65 | 0.514 | 0.741 | 0.73 | 0.64 | 0.682 | 0.694 | 0.678 | 0.643 | 0.658 | 0.771 | 0.967 | 0.958 | 0.975 | 0.84 | 0.432 | 0.886 | 1.25 | 0.954 | 0.767
9 | IA-LM |  |  |  |  |  | 0.755 | 0.846 | 0.954 | 0.902 | 0.833 | 0.857 | 0.69 | 0.942 | 0.769 | 0.726 | 0.551 | 0.662 | 0.952 | 0.966 | 0.541
10 | NCI-H358 |  | 0.0969 | 0.108 | 0.131 | 0.0806 |  | 0.614 | 0.59 | 0.544 | 0.49 |  |  |  |  |  |  | 0.472 | 0.437 | 0.394 | 0.397
11 | SK-LU-1 | 0.279 | 0.339 | 0.325 | 0.337 | 0.3 | 0.436 | 0.443 | 0.627 | 0.449 | 0.422 |  | 1.08 | 1.58 | 1.14 | 0.817 | 0.711 | 0.781 | 1.04 | 0.905 | 0.81
12 | LCLC-97TM1 | 0.16 | 0.219 | 0.193 | 0.196 | 0.209 |  | 0.422 | 0.375 | 0.36 | 0.38 |  | 0.333 | 0.791 | 0.734 | 0.527 |  | 0.872 | 1.26 | 0.911 | 0.806
13 | NCI-H322M |  | 0.497 | 0.525 | 0.485 | 0.439 |  |  | 0.805 | 0.845 | 0.621 |  | 0.971 | 1.27 | 1.23 | 1.26 |  | 0.628 | 0.644 | 0.293 | 0.499
14 | NCI-H1623 | 0.407 | 0.411 | 0.421 | 0.42 | 0.436 |  |  |  |  |  |  |  |  |  |  |  |  |  |  | 
15 | EMC-BAC-2 | 0.196 | 0.286 | 0.287 | 0.283 | 0.237 | 0.315 |  | 0.524 | 0.471 | 0.445 | 0.972 | 1.13 | 1.18 | 1.07 | 0.944 | 0.613 | 0.884 | 0.954 | 0.906 | 0.819
16 | NCI-H1355 |  | 0.548 | 0.585 | 0.531 | 0.515 | 0.419 | 0.807 | 0.773 | 0.775 | 0.727 | 1.1 | 1.15 | 1.34 | 1.27 | 1.19 | 0.247 | 1.1 | 0.959 | 0.978 | 0.934
17 | Calu-6 |  |  |  |  |  |  | 0.544 | 0.556 | 0.602 | 0.51 | 1.07 | 0.979 | 0.968 | 0.953 | 0.871 | 0.432 | 1.05 | 1.06 | 1.1 | 1.03
18 | NCI-H661 |  | 0.356 | 0.369 | 0.328 | 0.329 |  | 0.726 | 0.778 | 0.67 | 0.66 |  | 0.811 | 0.649 | 0.843 | 0.715 |  | 0.471 | 0.471 | 0.443 | 0.402
19 | NCI-H1975 | 0.69 | 0.852 | 0.707 | 0.692 | 0.551 | 0.77 | 0.815 | 0.697 | 0.678 | 0.785 | 0.422 | 0.382 | 0.408 | 0.455 | 0.363 | 0.691 | 0.845 | 0.832 | 0.875 | 0.78
